Among the targets are Cytochrome P450 2D6 (Homo sapiens, UniProt P10635); Cytochrome P450 2C9 (Homo sapiens, UniProt P11712); Cytochrome P450 3A4 (Homo sapiens, UniProt P08684).
Another series addresses T1, Cytochrome P450 1A2 (Homo sapiens, UniProt P05177).
T1 sequence (P05177 whole entry): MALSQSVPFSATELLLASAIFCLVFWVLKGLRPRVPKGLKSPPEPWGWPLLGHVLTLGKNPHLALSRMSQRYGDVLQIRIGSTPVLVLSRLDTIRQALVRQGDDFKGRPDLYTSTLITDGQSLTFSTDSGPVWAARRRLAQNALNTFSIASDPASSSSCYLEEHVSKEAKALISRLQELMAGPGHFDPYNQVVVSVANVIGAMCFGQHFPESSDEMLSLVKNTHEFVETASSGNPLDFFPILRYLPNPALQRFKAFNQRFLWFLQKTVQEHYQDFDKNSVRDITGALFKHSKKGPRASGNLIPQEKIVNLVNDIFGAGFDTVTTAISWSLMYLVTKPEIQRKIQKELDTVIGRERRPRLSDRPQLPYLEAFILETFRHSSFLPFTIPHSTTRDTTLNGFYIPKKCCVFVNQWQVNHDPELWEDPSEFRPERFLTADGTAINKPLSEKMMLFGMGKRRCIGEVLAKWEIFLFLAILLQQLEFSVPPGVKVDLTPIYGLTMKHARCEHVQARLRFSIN

Series [1] in a line: Luminescence Cell-Based Dose Confirmation HTS to Identify Activators of 5'UTR Stem-Loop Driven Alpha-Synuclein mRNA Translation in H4 Neuroglioblastoma Cells. [Related pubchem assays: 1829 (Project Summary), 1814 (Primary HTS)]. The class given is functional.
Series [2] can be described thus: Luminescence Cell-Based Dose Response HTS to Identify Activators of Luciferase Translation or Activity in H4 […] Cells. [Related pubchem assays: 1829 (Project Summary), 1814 (Primary HTS)]. The class given is functional.
For another series, the system named is H4. In words: Luminescence Cell-Based Dose Response HTS to Identify Activators of 5'UTR Stem-Loop Driven Prion Protein mRNA Translation in H4 Neuroglioblastoma Cells. [Related pubchem assays: 1829 (Project Summary), 1814 (Primary HTS)]. The class given is functional. The settings on record: Homo sapiens.
Another series addresses Cytochrome P450 2C19 (Homo sapiens, UniProt P33261). In words: Cytochrome panel assay with activity outcomes. Panel member name: p450-cyp2c19 Compounds with AC50 equal or less than 10 uM are considered active. The class given is functional.
In a further series the target is T2, Protein RecA (Mycobacterium tuberculosis, UniProt P9WHJ3).
T2 sequence (P9WHJ3 whole entry): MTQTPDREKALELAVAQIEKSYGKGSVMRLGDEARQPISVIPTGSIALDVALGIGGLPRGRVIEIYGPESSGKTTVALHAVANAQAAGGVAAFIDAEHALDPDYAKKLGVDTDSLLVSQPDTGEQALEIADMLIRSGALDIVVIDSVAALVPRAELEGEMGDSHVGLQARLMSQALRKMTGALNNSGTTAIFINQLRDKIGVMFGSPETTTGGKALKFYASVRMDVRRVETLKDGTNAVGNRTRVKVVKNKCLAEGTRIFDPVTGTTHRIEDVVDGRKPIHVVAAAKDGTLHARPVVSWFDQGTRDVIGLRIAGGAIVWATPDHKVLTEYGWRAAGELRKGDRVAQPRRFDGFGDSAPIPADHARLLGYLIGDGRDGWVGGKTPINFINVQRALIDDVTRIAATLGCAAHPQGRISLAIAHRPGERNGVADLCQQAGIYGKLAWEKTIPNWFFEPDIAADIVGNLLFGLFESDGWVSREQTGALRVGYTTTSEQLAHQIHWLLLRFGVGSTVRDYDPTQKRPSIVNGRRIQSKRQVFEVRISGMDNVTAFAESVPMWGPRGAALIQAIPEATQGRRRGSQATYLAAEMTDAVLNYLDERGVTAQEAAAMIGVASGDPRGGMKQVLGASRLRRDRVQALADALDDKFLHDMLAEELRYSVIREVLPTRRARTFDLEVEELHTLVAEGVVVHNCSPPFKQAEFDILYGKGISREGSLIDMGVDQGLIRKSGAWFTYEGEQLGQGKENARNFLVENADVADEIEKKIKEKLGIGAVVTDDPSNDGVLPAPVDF
In words: Fluorescence Cell-Free Homogeneous Dose Retest to Identify Inhibitors of RecA-Intein Splicing Activity. [Related pubchem assays (depositor defined):AID2097, AID2223, AID489010, AID492950]. The class given is functional.

The text below walks through data of ChEMBL document CHEMBL1201862, “PubChem BioAssay data set” (2004).

As a reminder, the AC50 is the concentration giving half of the maximal activity seen. Usually EC50 stands for the concentration that produces a half-maximal response.

Activity calls are given as the source filed them.

Chain of Cytochrome P450 2C9 (P11712 whole entry): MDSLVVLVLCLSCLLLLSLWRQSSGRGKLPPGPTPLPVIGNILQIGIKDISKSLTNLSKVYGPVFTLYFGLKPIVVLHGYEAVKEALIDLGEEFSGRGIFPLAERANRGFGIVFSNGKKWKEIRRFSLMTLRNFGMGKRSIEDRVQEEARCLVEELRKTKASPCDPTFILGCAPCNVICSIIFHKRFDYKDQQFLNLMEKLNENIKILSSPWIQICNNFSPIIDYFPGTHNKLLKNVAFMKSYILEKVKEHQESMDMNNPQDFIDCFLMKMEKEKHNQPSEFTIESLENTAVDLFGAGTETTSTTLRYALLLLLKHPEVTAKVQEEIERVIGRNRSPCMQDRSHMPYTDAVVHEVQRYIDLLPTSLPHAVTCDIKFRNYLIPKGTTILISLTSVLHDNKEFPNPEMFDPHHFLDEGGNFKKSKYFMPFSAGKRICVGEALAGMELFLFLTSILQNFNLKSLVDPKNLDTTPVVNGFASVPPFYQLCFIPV
Chain of Cytochrome P450 2C19 (P33261 whole entry): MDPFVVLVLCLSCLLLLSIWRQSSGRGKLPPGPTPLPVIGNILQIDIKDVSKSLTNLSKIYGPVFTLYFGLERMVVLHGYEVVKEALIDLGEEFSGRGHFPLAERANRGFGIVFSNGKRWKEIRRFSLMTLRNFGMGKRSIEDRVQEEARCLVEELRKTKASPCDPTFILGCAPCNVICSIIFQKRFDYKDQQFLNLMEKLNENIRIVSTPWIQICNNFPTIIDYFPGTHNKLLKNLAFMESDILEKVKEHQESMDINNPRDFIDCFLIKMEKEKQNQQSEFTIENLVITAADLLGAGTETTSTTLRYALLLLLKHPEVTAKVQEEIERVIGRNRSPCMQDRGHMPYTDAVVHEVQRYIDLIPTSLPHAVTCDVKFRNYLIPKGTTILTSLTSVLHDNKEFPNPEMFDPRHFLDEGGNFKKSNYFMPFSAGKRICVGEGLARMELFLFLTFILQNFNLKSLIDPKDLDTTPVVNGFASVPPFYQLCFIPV
Chain of Cytochrome P450 2D6 (P10635 whole entry): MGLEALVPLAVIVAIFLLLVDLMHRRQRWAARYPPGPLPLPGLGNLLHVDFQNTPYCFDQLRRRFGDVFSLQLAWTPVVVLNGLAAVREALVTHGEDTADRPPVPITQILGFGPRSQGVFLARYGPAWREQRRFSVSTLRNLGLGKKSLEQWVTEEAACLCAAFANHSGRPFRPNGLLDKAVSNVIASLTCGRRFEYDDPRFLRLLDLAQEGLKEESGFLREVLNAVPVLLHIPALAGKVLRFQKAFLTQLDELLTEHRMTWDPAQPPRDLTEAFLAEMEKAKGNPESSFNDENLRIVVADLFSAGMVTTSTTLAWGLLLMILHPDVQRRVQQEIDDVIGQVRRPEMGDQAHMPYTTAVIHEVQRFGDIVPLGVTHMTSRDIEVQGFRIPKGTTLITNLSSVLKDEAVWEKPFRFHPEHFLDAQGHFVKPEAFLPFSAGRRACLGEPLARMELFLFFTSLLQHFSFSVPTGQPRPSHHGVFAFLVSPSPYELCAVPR
Chain of Cytochrome P450 3A4 (P08684 whole entry): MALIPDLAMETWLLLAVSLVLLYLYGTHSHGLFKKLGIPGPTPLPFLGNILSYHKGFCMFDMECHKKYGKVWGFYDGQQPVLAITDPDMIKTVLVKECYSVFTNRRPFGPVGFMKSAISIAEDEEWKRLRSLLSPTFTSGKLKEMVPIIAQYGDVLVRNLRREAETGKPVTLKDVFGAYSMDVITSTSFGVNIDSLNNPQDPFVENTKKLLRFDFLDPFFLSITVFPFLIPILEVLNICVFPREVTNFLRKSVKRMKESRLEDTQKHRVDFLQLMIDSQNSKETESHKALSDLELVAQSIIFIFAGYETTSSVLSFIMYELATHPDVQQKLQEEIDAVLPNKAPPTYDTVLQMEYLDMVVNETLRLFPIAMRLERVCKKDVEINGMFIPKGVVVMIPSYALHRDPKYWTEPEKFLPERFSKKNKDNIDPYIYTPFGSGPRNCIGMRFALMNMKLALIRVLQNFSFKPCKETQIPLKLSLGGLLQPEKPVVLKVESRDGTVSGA

In the case of `CCOc1c2ccc(C(=O)NCc3cc(C(F)(F)F)cc(C(F)(F)F)c3)cc2nn1C`, the AC50 at Cytochrome P450 2D6 is 20 µM (inconclusive); on Cytochrome P450 1A2, 17.8 µM (inconclusive); at Cytochrome P450 2C9, 31.6 µM (inconclusive).
With `CCc1cc2c(nc1CC)CCN(CC/C(C)=N/OC[C@H]1O[C@H](c3ccccc3)C=C[C@@H]1Oc1ccc(OC)cc1)C2`, the AC50 on Cytochrome P450 2D6, on Cytochrome P450 3A4 and on Cytochrome P450 2C9 was 6.31 µM (inconclusive) throughout.
Turning to `COc1ccc(C(CC(=O)Nc2ccccn2)N2Cc3ccccc3C2=O)cc1` (stereo unspecified), the values for the EC50 (in [1]; in series [2]; in the series on H4) were > 60 µM (not active), 16.4 µM (active) and > 120 µM (not active), respectively.
As to `C[C@](O)(C(=O)Nc1ccc(S(=O)(=O)c2ccccc2)cc1)C(F)(F)F`, the AC50 on Cytochrome P450 2C19 (read-out: AC50) is 6.31 µM (inconclusive); at Cytochrome P450 2D6 it was 31.6 µM (inconclusive); on Cytochrome P450 1A2, 39.8 µM (inconclusive); on Cytochrome P450 3A4 it was 31.6 µM (inconclusive).
As for `COc1ccc(NC(=O)N2CC[C@@]3(CCCN(S(C)(=O)=O)C3)C2)cc1`, the AC50 at Cytochrome P450 1A2 was 25.1 µM (inconclusive); on Cytochrome P450 3A4, 39.8 µM (inconclusive).
For `COc1ccc(CCc2nc(-c3cccs3)no2)cc1`, the EC50 in series [1] is 19.2 µM (active); in series [2], 6.22 µM (active); in the series with H4 it was 23.3 µM (active).
Turning to `N=C(NOC(=O)c1ccco1)c1ccccc1`, the results for the EC50 (in series [2]; with H4) were 47.4 µM (active) and > 120 µM (not active), respectively.
As to `CCOC(=O)C1=C(O)/C(=C\c2ccc(OC)c(OC)c2)N=C1C`, the AC50 on Cytochrome P450 2C19 (read-out: AC50) is 39.8 µM (inconclusive); on Cytochrome P450 1A2 it was 8.91 µM (inconclusive); at Cytochrome P450 3A4, 15.8 µM (inconclusive).
Consider `COc1ccc(OC)c(/C=N/c2ccccc2-c2nc3ccccc3[nH]2)c1`, for which the figures for the EC50 (in [1]; in series [2]; with H4) were 13.1 µM (active), 8.07 µM (active) and 10.8 µM (active), respectively.
Turning to `CC(C)OC(=O)CSc1nc(-c2ccc(F)cc2)nc2ccc(F)cc12`, the results for the AC50 at Cytochrome P450 2C19 (read-out: AC50) and on Cytochrome P450 2C9 were 0.112 µM (inconclusive) and 0.0178 µM (inconclusive), respectively.
On to `Cn1nc(/C=C/c2ccccc2)ccc1=O`, for which the EC50 in series [1] is 10.9 µM (active); in series [2], 15.2 µM (active); in the series with H4, 14.1 µM (active).
In the case of `CCOC(=O)c1c(C)[nH]c2ccc3c(c12)CN1CCc2cc(OC)ccc2[C@@H]1O3`, the AC50 entry was “inconclusive” on Cytochrome P450 2C19 and 2.51 µM (inconclusive) at Cytochrome P450 3A4.
For the compound `Cc1ccc(-c2nnc(-c3ccc4ccccc4c3)o2)cc1`, the half-maximal activity concentration (AC50) on Cytochrome P450 3A4 is 6.31 µM (inconclusive); at Cytochrome P450 2C9, 5.01 µM (inconclusive).
For the compound `COc1cc([C@H](O)CO)ccc1O`, the AC50 at Cytochrome P450 3A4 was 0.0316 µM (inconclusive).
On to `CNc1nc(-c2ccccc2OC)nc2ccccc12`, for which the AC50 result at Cytochrome P450 2C19 was “inconclusive”; on Cytochrome P450 3A4, 31.6 µM (inconclusive).
`Cc1ccc(NCCC(=O)c2ccc(Cl)cc2)cc1C`: the AC50 at Cytochrome P450 3A4 was 3.55 µM (inconclusive).
`COc1ccccc1-c1nc(N2CCOCC2)c2ccccc2n1`: the AC50 at Cytochrome P450 2D6 is 12.6 µM (inconclusive); on Cytochrome P450 3A4, 15.8 µM (inconclusive).
`CCOC(=O)c1nnn(-c2nc(OC)nc(N3CCCCC3)n2)c1-c1ccccc1`: the results for the AC50 on Cytochrome P450 1A2 and at Cytochrome P450 2C9 were 14.1 µM (inconclusive) and 28.2 µM (inconclusive), respectively.
For the compound `Cc1ccccc1NC(=O)C1Cc2ccccc2CN1C(=O)c1ccco1` (stereo unspecified), the EC50 in series [1] was 35.6 µM (active); in series [2] it was 39.3 µM (active); in the series with H4, 12.7 µM (active).
For `O=C(c1ccc(Cl)cc1)c1c[nH]c(C(=O)C(Cl)(Cl)Cl)c1`, the EC50 on Protein RecA is > 380 µM (inconclusive).
For `O=C(Nc1cccn2ncnc12)c1ccccc1`, the EC50 in series [1] was > 120 µM (not active); in series [2] it was 14.8 µM (active); in the series on H4, 23.5 µM (active).
As for `O=C(Nc1ccccc1N1CCOCC1)c1cnccn1`, the AC50 on Cytochrome P450 2C19 (read-out: AC50) was 0.0398 µM (inconclusive); at Cytochrome P450 3A4, 14.1 µM (inconclusive).
With `Clc1ccccc1-c1cc(NCc2cccnc2)ncn1`, at Cytochrome P450 3A4, the AC50 is 10 µM (inconclusive).
As for `CCCn1nnnc1NC(=O)c1ccc(C)cc1Cl`, the AC50 was 10 µM (inconclusive) on Cytochrome P450 1A2 and 0.2 µM (inconclusive) at Cytochrome P450 2C9.
As for `COc1cccc(Cn2c(=O)c(-c3ccccc3)nc3cnc(N(C)C)nc32)c1`, the AC50 was 10 µM (inconclusive) at Cytochrome P450 1A2 and 15.8 µM (inconclusive) at Cytochrome P450 2C9.
As to `O=[N+]([O-])c1ccccc1CSc1nc(O)c2nc[nH]c2n1`, the AC50 on Cytochrome P450 3A4 is 3.98 µM (inconclusive).
For `Clc1ccc(-c2cnc(Oc3ccccc3)nc2)cc1`, the EC50 in [1] was 2.63 µM (active); in series [2], 0.194 µM (active).
For the compound `Oc1ccc2c3c1O[C@H]1c4[nH]c5ccccc5c4C[C@]4(O)[C@H](C2)N(CC2CC2)CC[C@@]314`, the AC50 on Cytochrome P450 3A4 is 0.01 µM (inconclusive).
`Cc1cc(C(=O)CSc2cccc[n+]2[O-])c(C)n1-c1ccc(Br)cc1`: the 50% effective concentration (EC50) in series [1] was < 0.1 µM (active); in [2] it was 55.6 µM (active); in the series on H4, > 120 µM (not active).
As for `CCOc1ccc(C(C)=O)cc1N1C(=O)C2C3C=CC(C3=C(C)C)C2C1=O` (stereo unspecified), the AC50 at Cytochrome P450 2C19 (read-out: AC50) is 25.1 µM (inconclusive); on Cytochrome P450 1A2, 0.0631 µM (inconclusive); at Cytochrome P450 2C9, 5.62 µM (inconclusive).
Take `CN(C)Cc1ccccc1-c1nc(NCc2cccs2)c2ccccc2n1`: the AC50 on Cytochrome P450 3A4 is 6.31 µM (inconclusive).
`Cc1ccc(NC(=O)CC2SCCNC2=O)cc1Cl` (stereo unspecified): the EC50 in [1] was 14.5 µM (active); in series [2], 30.9 µM (active); in the series with H4, > 120 µM (not active).
As for `CCOC(=O)c1cnn(-c2ccc(C(F)(F)F)cn2)c1N`, the EC50 is 21.1 µM (active) in series [1], > 120 µM (not active) in [2] and > 120 µM (not active) with H4.
For `O=c1c2c3nc4ccccc4nc3n(/N=C/c3ccccn3)c2ncn1-c1ccccc1`, the EC50 was > 120 µM (not active) in series [1], 13 µM (active) in [2] and > 120 µM (not active) with H4.
As for `Cc1cc(C)n(C(=O)c2cc3sccc3[nH]2)n1`, the EC50 in series [1] is 6.99 µM (active); in [2], 14.6 µM (active); in the series with H4, 83.6 µM (inconclusive).
Consider `COc1ccc(CCNC(=O)c2ccc3c(c2)OCCO3)cc1`, for which the EC50 in the series with H4 was 66.7 µM (active).
With `Cc1ccc(C(=O)NC(=S)NCC(=O)c2ccccc2)cc1`, the AC50 at Cytochrome P450 1A2 was 2.24 µM (inconclusive); on Cytochrome P450 3A4, 8.91 µM (inconclusive); on Cytochrome P450 2C9 it was 2.51 µM (inconclusive).
Consider `O=C(CN1C(=O)c2cccc3cccc(c23)C1=O)N1CCCCCC1`, for which, at Cytochrome P450 2C9, the AC50 was 22.4 µM (inconclusive).
For `CCC(=O)n1nc(-c2ccc(OC)cc2)nc1N`, the AC50 on Cytochrome P450 2C9 is 0.0562 µM (inconclusive).
